Results as given in ChEMBL document CHEMBL1159142, “A convenient degradation of polyoxin D to uracil polyoxin C: access to key intermediates and synthesis of antifungal -aminoacyl derivatives of UPOC” (Bioorg Med Chem Lett, 1993).

test system: Candida albicans; assay: Geometric mean minimum inhibitory concentration (GMMIC) for whole cell activity against Candida albicans; assay type: functional

Structure (SMILES) | GMMIC
NC(Cc1c[nH]c2ccc(O)cc12)C(=O)N[C@H](CO)[C@H]1OC(n2ccc(=O)[nH]c2=O)[C@H](O)[C@@H]1O (some centres not stated) | >2048 µg/mL
N[C@H](C(=O)N[C@H](C(=O)O)[C@H]1O[C@@H](n2ccc(=O)[nH]c2=O)[C@H](O)[C@@H]1O)c1csc(O)c1 | >2048 µg/mL
CSCCC(N)C(=O)N[C@H](C(=O)O)[C@H]1O[C@@H](n2ccc(=O)[nH]c2=O)[C@H](O)[C@@H]1O (some centres not stated) | 49 µg/mL
C[C@H](Cc1ccc(O)cc1)[C@H](N)C(=O)N[C@H](C(=O)O)[C@H]1O[C@@H](n2ccc(=O)[nH]c2=O)[C@H](O)[C@@H]1O | 35 µg/mL
N[C@@H](Cc1c[nH]c2ccc(F)cc12)C(=O)N[C@H](C(=O)O)[C@H]1O[C@@H](n2ccc(=O)[nH]c2=O)[C@H](O)[C@@H]1O | >2048 µg/mL
NC(Cc1c[nH]c2ccc(O)cc12)C(=O)NC[C@H]1OC(n2ccc(=O)[nH]c2=O)[C@H](O)[C@@H]1O (some centres not stated) | >2048 µg/mL
COc1ccc2[nH]cc(C[C@H](N)C(=O)N[C@H](C(=O)O)[C@H]3O[C@@H](n4ccc(=O)[nH]c4=O)[C@H](O)[C@@H]3O)c2c1 | >2048 µg/mL
N[C@@H](CCc1ccc(O)cn1)C(=O)N[C@H](C(=O)O)[C@H]1O[C@@H](n2ccc(=O)[nH]c2=O)[C@H](O)[C@@H]1O | 118 µg/mL
NCC(=O)N[C@H](C(=O)O)[C@H]1O[C@@H](n2ccc(=O)[nH]c2=O)[C@H](O)[C@@H]1O | >2048 µg/mL
NC(=O)OC[C@H](O)[C@@H](O)[C@H](N)C(=O)N[C@H](C(=O)O)[C@H]1O[C@@H](n2cc(C(=O)O)c(=O)[nH]c2=O)[C@H](O)[C@@H]1O | 153 µg/mL
N[C@H](C(=O)O)[C@H]1OC(n2ccc(=O)[nH]c2=O)[C@H](O)[C@@H]1O (some centres not stated) | >2048 µg/mL
CC[C@@H](O)C(N)C(=O)N[C@H](C(=O)O)[C@H]1O[C@@H](n2ccc(=O)[nH]c2=O)[C@H](O)[C@@H]1O (some centres not stated) | >2048 µg/mL
CC[C@H](C)C(N)C(=O)N[C@H](C(=O)O)[C@H]1O[C@@H](n2ccc(=O)[nH]c2=O)[C@H](O)[C@@H]1O (some centres not stated) | >2048 µg/mL
CC[C@@H](C)C(N)C(=O)N[C@H](C(=O)O)[C@H]1O[C@@H](n2ccc(=O)[nH]c2=O)[C@H](O)[C@@H]1O (some centres not stated) | 44 µg/mL
CC(C)[C@H](N)C(=O)N[C@H](C(=O)O)[C@H]1O[C@@H](n2ccc(=O)[nH]c2=O)[C@H](O)[C@@H]1O | 87 µg/mL
C[C@@H](Cc1ccc(O)cn1)[C@H](N)C(=O)N[C@H](C(=O)O)[C@H]1O[C@@H](n2ccc(=O)[nH]c2=O)[C@H](O)[C@@H]1O | 51 µg/mL
N[C@@H](Cc1c[nH]c2ccc(O)cc12)C(=O)N[C@H](C(=O)O)[C@H]1O[C@@H](n2ccc(=O)[nH]c2=O)[C@H](O)[C@@H]1O | 27 µg/mL
N[C@@H](CCc1ccc(O)cc1)C(=O)N[C@H](C(=O)O)[C@H]1O[C@@H](n2ccc(=O)[nH]c2=O)[C@H](O)[C@@H]1O | 128 µg/mL
N[C@@H](Cc1c[nH]c2ccccc12)C(=O)N[C@H](C(=O)O)[C@H]1O[C@@H](n2ccc(=O)[nH]c2=O)[C@H](O)[C@@H]1O | 2048 µg/mL
C[C@H](Cc1ccc(O)cn1)[C@H](N)C(=O)N[C@H](C(=O)O)[C@H]1O[C@@H](n2ccc(=O)[nH]c2=O)[C@H](O)[C@@H]1O | 9.3 µg/mL
C=C[C@@H](C)C(N)C(=O)N[C@H](C(=O)O)[C@H]1O[C@@H](n2ccc(=O)[nH]c2=O)[C@H](O)[C@@H]1O (some centres not stated) | 406 µg/mL
C[C@@H]([C@H](N)C(=O)N[C@H](C(=O)O)[C@H]1O[C@@H](n2ccc(=O)[nH]c2=O)[C@H](O)[C@@H]1O)[C@H](O)c1ccc(O)cn1 [NIKKOMYCIN] | 6 µg/mL
